Source: patent US7951829B2, “Benzimidazole modulators of VR1” (Janssen Pharmaceutica NV, priority 2006, dated 2011)
pIC50: −log10 of the molar value.

Molecular target: T1, hVR1 (Homo sapiens, UniProt Q8NER1)
T1 construct: expressed in transfected cells; host or cells: HEK293
Test: Human VR1 (hVR1) Functional Assay (FLIPR intracellular calcium, capsaicin challenge)
Format: cell-based
Details: capsaicin 0.030 μM, HEK293 cells expressing hVR1; for inhibition at 1 µM: test concentration 1 μM

T1 sequence (Q8NER1 whole entry): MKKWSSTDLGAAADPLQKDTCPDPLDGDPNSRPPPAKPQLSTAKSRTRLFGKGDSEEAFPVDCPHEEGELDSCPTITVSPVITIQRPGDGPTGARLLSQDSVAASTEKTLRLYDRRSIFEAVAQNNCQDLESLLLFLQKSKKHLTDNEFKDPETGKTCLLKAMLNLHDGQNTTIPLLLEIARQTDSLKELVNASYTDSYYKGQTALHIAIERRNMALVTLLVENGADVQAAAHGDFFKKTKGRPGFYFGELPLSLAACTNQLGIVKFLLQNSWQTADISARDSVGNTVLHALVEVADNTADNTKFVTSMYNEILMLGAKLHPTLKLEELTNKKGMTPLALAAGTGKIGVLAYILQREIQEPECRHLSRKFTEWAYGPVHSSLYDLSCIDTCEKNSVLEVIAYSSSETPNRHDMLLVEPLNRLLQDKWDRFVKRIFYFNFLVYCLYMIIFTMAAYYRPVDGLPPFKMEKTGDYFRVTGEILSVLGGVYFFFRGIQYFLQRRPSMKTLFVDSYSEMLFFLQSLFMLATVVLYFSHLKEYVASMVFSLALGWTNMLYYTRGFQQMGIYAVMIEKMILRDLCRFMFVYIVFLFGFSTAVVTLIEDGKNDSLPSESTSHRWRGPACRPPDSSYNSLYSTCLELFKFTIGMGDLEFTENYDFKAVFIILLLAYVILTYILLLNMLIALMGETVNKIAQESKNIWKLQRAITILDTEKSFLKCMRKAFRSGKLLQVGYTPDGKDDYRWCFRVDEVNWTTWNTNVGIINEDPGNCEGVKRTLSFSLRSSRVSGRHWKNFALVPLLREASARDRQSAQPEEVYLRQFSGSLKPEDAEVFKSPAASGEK

pIC50	inhibition at 1 µM	Structure (SMILES)
7.96	100%	CS(=O)(=O)Nc1ccccc1-c1ccc2[nH]c(/C=C/c3ccc(C(F)(F)F)c(F)c3)nc2c1 [Cpd 417, (E)-N-(2-{2-[2-(3-fluoro-4-trifluoromethyl-phenyl)-vinyl]-1H-benzimidazol-5-yl}-phenyl)-methanesulfonamide]
7.46	99%	CNS(=O)(=O)c1ccccc1-c1ccc2[nH]c(/C=C/c3cc(F)cc(F)c3)nc2c1 [Cpd 328, (E)-2-{2-[2-(3,5-difluoro-phenyl)-vinyl]-1H-benzimidazol-5-yl}-N-methyl-benzenesulfonamide]
	8%	CC(=O)Nc1ccccc1-c1ccc2[nH]c(/C=C/c3ccc(F)c(F)c3)nc2c1 [Cpd 24, (E)-N-(2-{2-[2-(3,4-difluoro-phenyl)-vinyl]-1H-benzimidazol-5-yl}-phenyl)-acetamide]
	0%	CS(=O)(=O)Nc1ccccc1-c1cc2nc(/C=C/c3ccc(C(F)(F)F)cc3)[nH]c2cc1F [Cpd 65, (E)-N-(2-{6-fluoro-2-[2-(4-trifluoromethyl-phenyl)-vinyl]-1H-benzimidazol-5-yl}-phenyl)-methanesulfonamide]
7.33	98%	CC(C)(C)c1ccc(/C=C/c2nc3cc(-c4ccccc4C(N)=O)c(C(F)(F)F)cc3[nH]2)cc1 [Cpd 53, (E)-2-{2-[2-(4-tert-butyl-phenyl)-vinyl]-6-trifluoromethyl-1H-benzimidazol-5-yl}-benzamide]
7.80	100%	CC(O)c1ccccc1-c1ccc2[nH]c(/C=C/c3ccc(S(=O)(=O)C(F)(F)F)cc3)nc2c1 (stereo not drawn) [Cpd 45, (E)-1-(2-{2-[2-(4-trifluoromethanesulfonyl-phenyl)-vinyl]-1H-benzimidazol-5-yl}-phenyl)-ethanol]
	4%	FC(F)(F)Oc1ccccc1-c1ccc2[nH]c(/C=C/c3ccc(C(F)(F)F)cc3)nc2c1 [Cpd 488, (E)-5-(2-trifluoromethoxy-phenyl)-2-[2-(4-trifluoromethyl-phenyl)-vinyl]-1H-benzimidazole]
7.77	100%	CNS(=O)(=O)c1ccccc1-c1ccc2[nH]c(/C=C/c3ccc(C(F)(F)F)cc3C(F)(F)F)nc2c1 [Cpd 455, (E)-2-{2-[2-(2,4-bis-trifluoromethyl-phenyl)-vinyl]-1H-benzimidazol-5-yl}-N-methyl-benzenesulfonamide]
7.32	98%	OCc1ccccc1-c1cc2nc(/C=C/c3ccc(C(F)(F)F)cc3)[nH]c2cc1Cl [Cpd 66, (E)-(2-{6-chloro-2-[2-(4-trifluoromethyl-phenyl)-vinyl]-1H-benzimidazol-5-yl}-phenyl)-methanol]
	20%	CC(C)(C)OC(=O)Nc1ccccc1-c1cc2nc(/C=C/c3ccc(C(C)(C)C)cc3)[nH]c2cc1C(F)(F)F [Cpd 54, (E)-(2-{2-[2-(4-tert-butyl-phenyl)-vinyl]-6-trifluoromethyl-1H-benzimidazol-5-yl}-phenyl)-carbamic acid tert-butyl ester]
7.89	98%	NS(=O)(=O)c1ccccc1-c1ccc2[nH]c(/C=C/c3ccc(F)c(F)c3F)nc2c1 [Cpd 370, (E)-2-{2-[2-(2,3,4-trifluoro-phenyl)-vinyl]-1H-benzimidazol-5-yl}-benzenesulfonamide]
7.39	98%	NS(=O)(=O)c1ccccc1-c1ccc2[nH]c(CCc3cc(C(F)(F)F)cc(C(F)(F)F)c3)nc2c1 [Cpd 387, 2-{2-[2-(3,5-bis-trifluoromethyl-phenyl)-ethyl]-1H-benzimidazol-5-yl}-benzenesulfonamide]
6.98	96%	CNS(=O)(=O)c1ccccc1-c1ccc2[nH]c(/C=C/c3cccc(Br)c3)nc2c1 [Cpd 338, (E)-2-{2-[2-(3-bromo-phenyl)-vinyl]-1H-benzimidazol-5-yl}-N-methyl-benzenesulfonamide]
8.15	98%	NS(=O)(=O)c1ccccc1-c1ccc2[nH]c(CCc3ccc(F)c(F)c3F)nc2c1 [Cpd 384, 2-{2-[2-(2,3,4-trifluoro-phenyl)-ethyl]-1H-benzimidazol-5-yl}-benzenesulfonamide]
7.85	96%	CNS(=O)(=O)c1ccccc1-c1ccc2[nH]c(/C=C/c3ccc(Cl)cc3Cl)nc2c1 [Cpd 337, (E)-2-{2-[2-(2,4-dichloro-phenyl)-vinyl]-1H-benzimidazol-5-yl}-N-methyl-benzenesulfonamide]
7.02	87%	OCc1ccccc1-c1cc2nc(/C=C/c3ccc(C(F)(F)F)cc3)[nH]c2cc1C(F)(F)F [Cpd 58, (E)-(2-{6-trifluoromethyl-2-[2-(4-trifluoromethyl-phenyl)-vinyl]-1H-benzimidazol-5-yl}-phenyl)-methanol]
6.89	98%	CC(=O)c1ccccc1-c1cc2nc(/C=C/c3ccc(C(F)(F)F)cc3)[nH]c2cc1Cl [Cpd 67, (E)-1-(2-{6-chloro-2-[2-(4-trifluoromethyl-phenyl)-vinyl]-1H-benzimidazol-5-yl}-phenyl)-ethanone]

pIC50	inhibition at 1 µM	Structure (SMILES)
7.72	97%	CS(=O)(=O)c1ccccc1-c1ccc2[nH]c(C3CC3c3ccc(C(F)(F)F)cc3)nc2c1 (stereo not drawn) [Cpd 500, 5-(2-methanesulfonyl-phenyl)-2-[2-(4-trifluoromethyl-phenyl)-cyclopropyl]-1H-benzimidazole]
5.77		CC(C)(C)c1ccc(CCc2nc3cc(-c4cccc(O)c4)ccc3[nH]2)cc1 [Cpd 33, 3-{2-[2-(4-tert-butyl-phenyl)-ethyl]-1H-benzimidazol-5-yl}-phenol]
8.70	96%	CC(C)(O)c1ccccc1-c1ccc2[nH]c(C#Cc3ccccc3)nc2c1 [Cpd 489, 2-[2-(2-phenylethynyl-1H-benzimidazol-5-yl)-phenyl]-propan-2-ol]
7.92	100%	NS(=O)(=O)c1ccccc1-c1ccc2[nH]c(/C=C/c3ccc(Cl)c(C(F)(F)F)c3)nc2c1 [Cpd 378, (E)-2-{2-[2-(4-chloro-3-trifluoromethyl-phenyl)-vinyl]-1H-benzimidazol-5-yl}-benzenesulfonamide]
6.80	89%	CNS(=O)(=O)c1ccccc1-c1ccc2[nH]c(/C=C/c3cc(F)ccc3F)nc2c1 [Cpd 326, (E)-2-{2-[2-(2,5-difluoro-phenyl)-vinyl]-1H-benzimidazol-5-yl}-N-methyl-benzenesulfonamide]
8.00	95%	CC(C)(O)c1ccccc1-c1ccc2[nH]c(C3CC3c3ccc(Cl)cc3)nc2c1 (stereo not drawn) [Cpd 198, 2-(2-{2-[2-(4-chloro-phenyl)-cyclopropyl]-1H-benzimidazol-5-yl}-phenyl)-propan-2-ol]
7.33	94%	NS(=O)(=O)c1ccccc1-c1ccc2[nH]c(CCc3ccc(F)cc3C(F)(F)F)nc2c1 [Cpd 404, 2-{2-[2-(4-fluoro-2-trifluoromethyl-phenyl)-ethyl]-1H-benzimidazol-5-yl}-benzenesulfonamide]
6.61	82%	CNS(=O)(=O)c1ccccc1-c1ccc2[nH]c(/C=C/c3ccccc3C(F)(F)F)nc2c1 [Cpd 343, (E)-N-methyl-2-{2-[2-(2-trifluoromethyl-phenyl)-vinyl]-1H-benzimidazol-5-yl}-benzenesulfonamide]
7.96	96%	NS(=O)(=O)c1ccccc1-c1ccc2[nH]c(CCc3ccc(F)c(C(F)(F)F)c3)nc2c1 [Cpd 383, 2-{2-[2-(4-fluoro-3-trifluoromethyl-phenyl)-ethyl]-1H-benzimidazol-5-yl}-benzenesulfonamide]
7.85	100%	CC(C)(C)c1ccc(/C=C/c2nc3cc(-c4ccccc4C(C)(C)O)ccc3[nH]2)cc1 [Cpd 463, (E)-2-(2-{2-[2-(4-tert-butyl-phenyl)-vinyl]-1H-benzimidazol-5-yl}-phenyl)-propan-2-ol]
8.10	99%	NS(=O)(=O)c1ccccc1-c1ccc2[nH]c(/C=C/c3cccc(OC(F)(F)F)c3)nc2c1 [Cpd 362, (E)-2-{2-[2-(3-trifluoromethoxy-phenyl)-vinyl]-1H-benzimidazol-5-yl}-benzenesulfonamide]
7.92	99%	NS(=O)(=O)c1ccccc1-c1ccc2[nH]c(/C=C/c3ccc(SC(F)(F)F)cc3)nc2c1 [Cpd 380, (E)-2-{2-[2-(4-trifluoromethylsulfanyl-phenyl)-vinyl]-1H-benzimidazol-5-yl}-benzenesulfonamide]
	0%	O=S(=O)(CC(F)(F)F)Nc1ccccc1-c1ccc2[nH]c(/C=C/c3ccc(C(F)(F)F)cc3)nc2c1 [Cpd 459, (E)-2,2,2-trifluoro-ethanesulfonic acid (2-{2-[2-(4-trifluoromethyl-phenyl)-vinyl]-1H-benzimidazol-5-yl}-phenyl)-amide]
7.70	99%	NS(=O)(=O)c1ccccc1-c1ccc2[nH]c(/C=C/c3cc(C(F)(F)F)cc(C(F)(F)F)c3)nc2c1 [Cpd 373, (E)-2-{2-[2-(3,5-bis-trifluoromethyl-phenyl)-vinyl]-1H-benzimidazol-5-yl}-benzenesulfonamide]
	28%	CC(C)(C)c1ccc(/C=C/c2nc3cc(-c4ccccc4F)c(C(F)(F)F)cc3[nH]2)cc1 [Cpd 52, (E)-2-[2-(4-tert-butyl-phenyl)-vinyl]-5-(2-fluoro-phenyl)-6-trifluoromethyl-1H-benzimidazole]
	15%	O=C(Nc1ccccc1-c1ccc2[nH]c(/C=C/c3ccc(C(F)(F)F)cc3)nc2c1)C(F)(F)F [Cpd 458, (E)-2,2,2-trifluoro-N-(2-{2-[2-(4-trifluoromethyl-phenyl)-vinyl]-1H-benzimidazol-5-yl}-phenyl)-acetamide]
7.23	99%	CNS(=O)(=O)c1ccccc1-c1ccc2[nH]c(/C=C/c3ccc(F)cc3F)nc2c1 [Cpd 349, (E)-2-{2-[2-(2,4-difluoro-phenyl)-vinyl]-1H-benzimidazol-5-yl}-N-methyl-benzenesulfonamide]
